In US10016383B2, “Inhibitors of metallo-β-lactamase-enzymes” (McMaster University, priority 2013, dated 2018):
Read-outs that look alike come from different tables or passages of the source.

Tests used:
[1] = rats, i.v.; cited from earlier work
K. pneumoniae N11-2218 [2] = test: Microdilution checkerboard / MIC; format: cell-based, Klebsiella pneumoniae; conditions: meropenem alone
Procedure: FIC values were determined by standard methods^27 setting up checkerboards with 8 concentrations of each meropenem and AM-A in serial ½ dilutions. Experiments were done in duplicate and the mean used for calculation. The MIC for each compound was the lowest concentration of compound showing no growth. The FIC for each compound was calculated as the concentration of the compound in the presence of co-compound for a well showing no growth, divided by the MIC for that compound. The FIC index is the sum of the two FICs.

K. pneumoniae N11-2218 [3] = test: Mouse systemic infection, organ bacterial load; format: in vivo, CD1 mice; conditions: meropenem alone, doses below 50 mg/kg
Description: (§1) All animals were housed in specific pathogen-free units in the Central Animal Facility at McMaster University. All experimental protocols were approved by, and performed in accordance with the McMaster Animal Research Ethics Board. Female CD1 mice were purchased from Charles River.
(§2) Mice were infected intraperitoneally (ip) with a dose of 2×10^6 colony forming units (cfu) of Klebsiella pneumoniae N11-2218 for all organ bacterial load experiments, or with a dose of 5×10^7cfu for all survival experiments. For all organ bacterial load experiments, mice were euthanized 48 hours post infection, and spleen and liver were harvested. Organs were placed into 1 mL sterile PBS on ice, and then homogenized (Mixer Mill 400; Retsch). Organ homogenates were then serially diluted in PBS, and plated on Brilliant Green agar (Oxoid) for cfu enumeration. For survival curves, mice were monitored for endpoint. For all experiments, mice were treated 30 minutes post infection with a specified subcutaneous dose of either PBS, meropenem, AM-A inhibitor, or a combination of both antibiotic and inhibitor.

K. pneumoniae N11-2218 [4] = test: Mouse lethal systemic infection, survival; format: in vivo, CD1 mice; conditions: monotherapy (alone)
Description: as §1, §2

SMILES | LD50 [1] | MIC (K. pneumoniae N11-2218 [2]; Klebsiella pneumoniae, N112218, read-out: MIC) | MIC (K. pneumoniae N11-2218 [2]) | response of infection to meropenem monotherapy (K. pneumoniae N11-2218 [3]) | prevention of lethal infection (K. pneumoniae N11-2218 [4])
O=C(O)CN[C@H](CN[C@@H](CC(=O)O)C(=O)O)C(=O)O [AM-B, aspergillomarasime B] | 660 mg/kg |  |  |  | 
C[C@@H](O)[C@H]1C(=O)N2C(C(=O)O)=C(S[C@@H]3CN[C@H](C(=O)N(C)C)C3)[C@H](C)[C@H]12 [meropenem, reference compound] |  | 32 µg/mL | 32 µg/mL | resistant | unable to prevent lethal infection
